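The compound was tested at five concentrations on cells cultured in 96-well plates, with a 48-hour exposure period. GI50 = concentration required for 50% inhibition of growth. TGI: concentration producing complete growth inhibition.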

Some test systems named below: 786-0 renal; A498 renal; EKVX NSCLC; HS 578T breast; NCI-H226 lung; OVCAR-4 ovarian; PC-3 prostate; SK-MEL-28 melanoma; SNB-75 CNS; T-47D breast.
What all share (assay): growth of human tumour cells (NCI), 48 h

As to `NC1=NC(c2ccc(Cl)cc2)C2=C(N1)/C(=C/c1ccc(Cl)cc1)CCC2` (stereo not given), the GI50 with 786-0 renal was 9.42 µM; in the assay on A498 renal, 2.67 µM; in the assay with EKVX NSCLC, 13.3 µM; in the assay with HS 578T breast, 7.97 µM; in the assay with NCI-H226 lung, 4.25 µM; in the assay with OVCAR-4 ovarian, 13.9 µM. Also, the GI50 with PC-3 prostate was 7.82 µM; with SK-MEL-28 melanoma it was 17 µM; with SNB-75 CNS, 16.4 µM; in the assay on T-47D breast, 11.6 µM. In addition, the TGI in the assay with 786-0 renal is 29.7 µM; with A498 renal it was 12.6 µM; with EKVX NSCLC, 78.4 µM; in the assay with HS 578T breast it was > 29.9 µM; in the assay on NCI-H226 lung, 11.8 µM; with OVCAR-4 ovarian it was 76.5 µM. For the same compound, the TGI with PC-3 prostate was 56.3 µM; with SK-MEL-28 melanoma, 45.4 µM; in the assay on SNB-75 CNS, 59.3 µM; in the assay with T-47D breast, > 100 µM.
`COc1ccccc1C#Cc1ccccc1C#CCCCCCC#Cc1ccccc1C#Cc1ccccc1OC`: the GI50 with 786-0 renal was > 100 µM; with A498 renal it was > 100 µM; in the assay with EKVX NSCLC it was > 100 µM; in the assay with HS 578T breast, > 100 µM; in the assay with NCI-H226 lung, > 100 µM; in the assay with OVCAR-4 ovarian, 13.7 µM. In addition, the GI50 with PC-3 prostate is > 100 µM; in the assay with SK-MEL-28 melanoma, 68.6 µM; in the assay on SNB-75 CNS, 1.81 µM; in the assay on T-47D breast it was 6.75 µM. Further, the TGI in the assay with 786-0 renal was > 100 µM; in the assay on A498 renal, > 100 µM; in the assay on EKVX NSCLC, > 100 µM; in the assay with HS 578T breast, > 100 µM; with NCI-H226 lung, > 100 µM; in the assay with OVCAR-4 ovarian, 84.4 µM. Further, the TGI in the assay with PC-3 prostate was > 100 µM; with SK-MEL-28 melanoma, > 100 µM; with SNB-75 CNS, 14.3 µM; in the assay with T-47D breast, > 100 µM.
For the compound `CN(C)C(=O)c1cc2cnc(Nc3ccc(-c4csc5c(=O)cc(N6CCOCC6)oc45)cc3)nc2n1C1CCCC1`, the GI50 in the assay on 786-0 renal was 0.162 µM; in the assay with A498 renal, 0.0547 µM; in the assay with EKVX NSCLC, 0.214 µM; with HS 578T breast, 0.134 µM; in the assay with NCI-H226 lung, 0.229 µM; with OVCAR-4 ovarian, 0.293 µM. For the same compound, the GI50 in the assay with PC-3 prostate was 0.22 µM; in the assay on SK-MEL-28 melanoma it was 0.207 µM; in the assay with SNB-75 CNS, 0.085 µM; in the assay on T-47D breast it was 0.171 µM. Also, the TGI in the assay on 786-0 renal was 4.25 µM; with A498 renal, 0.244 µM; in the assay on EKVX NSCLC it was 1.98 µM; with HS 578T breast, 0.648 µM; in the assay on NCI-H226 lung, 2.04 µM; in the assay with OVCAR-4 ovarian, > 53.7 µM. Moreover, the TGI with PC-3 prostate was 1.47 µM; in the assay on SK-MEL-28 melanoma, 0.869 µM; in the assay with SNB-75 CNS, 0.373 µM; in the assay with T-47D breast it was > 100 µM.
As for `C=CC1CC12C(=O)C1OC2(C)C2C(=O)c3c(O)ccc(O)c3C(=O)C12` (stereo not given), the GI50 in the assay on 786-0 renal is 1.94 µM; with A498 renal, 3.89 µM; in the assay on EKVX NSCLC it was 7.46 µM; with HS 578T breast, 7.44 µM; in the assay on NCI-H226 lung, 5.8 µM; with OVCAR-4 ovarian it was 7.84 µM. Also, the GI50 in the assay on PC-3 prostate was 4.72 µM; in the assay with SK-MEL-28 melanoma, 4.94 µM; in the assay with SNB-75 CNS it was 6.03 µM; in the assay on T-47D breast, 2.56 µM. The TGI came to 4.27 µM in the assay on 786-0 renal; 13.4 µM with A498 renal; 28.2 µM in the assay with EKVX NSCLC; 19.3 µM in the assay on HS 578T breast; 14.2 µM in the assay on NCI-H226 lung; 25.6 µM with OVCAR-4 ovarian. Further, the TGI in the assay on PC-3 prostate was determined as 15.3 µM; in the assay on SK-MEL-28 melanoma, 25.4 µM; in the assay with SNB-75 CNS it was 15.3 µM; in the assay with T-47D breast it was 14.1 µM.
Regarding `CCN1c2ccccc2C(Cl)(c2ccc(N(C)C)cc2)c2ccccc21`, the GI50 in the assay on 786-0 renal was 10.7 µM; in the assay with A498 renal, 59.6 µM; with EKVX NSCLC it was 7.98 µM; in the assay with HS 578T breast, 4.89 µM; in the assay with NCI-H226 lung, 14.6 µM; in the assay with OVCAR-4 ovarian, 11.9 µM. Besides, the GI50 in the assay on PC-3 prostate is 2.18 µM; with SK-MEL-28 melanoma it was 7.96 µM; in the assay with SNB-75 CNS it was 5.16 µM; in the assay on T-47D breast, 4.22 µM. For the same compound, the TGI was 22.7 µM in the assay with 786-0 renal; > 100 µM with A498 renal; > 100 µM with EKVX NSCLC; 27.3 µM in the assay on HS 578T breast; 34.5 µM in the assay with NCI-H226 lung; 25.3 µM in the assay on OVCAR-4 ovarian. The TGI was determined as 9.88 µM in the assay on PC-3 prostate, 22.4 µM in the assay with SK-MEL-28 melanoma, 18.2 µM with SNB-75 CNS and 64.2 µM in the assay on T-47D breast.
For the compound `O=Nc1ccc2ccccc2c1O`, the GI50 in the assay on 786-0 renal was 18.4 µM; in the assay with A498 renal, 14.3 µM; with EKVX NSCLC, 8.61 µM; in the assay with HS 578T breast, 1.56 µM; in the assay with NCI-H226 lung, 12.4 µM; in the assay on OVCAR-4 ovarian, 1.89 µM. In addition, the GI50 in the assay on PC-3 prostate is 2.61 µM; in the assay with SK-MEL-28 melanoma, 9.08 µM; in the assay with SNB-75 CNS, 2.61 µM; with T-47D breast it was 2.75 µM. Also, the TGI is 32.8 µM in the assay on 786-0 renal; 28.2 µM in the assay on A498 renal; 22.6 µM in the assay on EKVX NSCLC; 5.07 µM with HS 578T breast; 29.1 µM with NCI-H226 lung; 5.32 µM with OVCAR-4 ovarian. Further, the TGI in the assay with PC-3 prostate came out at 11.9 µM; in the assay on SK-MEL-28 melanoma, 22.2 µM; in the assay with SNB-75 CNS, 15.7 µM; with T-47D breast it was 6.08 µM.
With `CC(=O)O/N=C1/C(c2c(O)[nH]c3cc(Br)ccc23)=Nc2ccccc21`, the GI50 in the assay with 786-0 renal is 1.92 µM; in the assay with A498 renal, 0.429 µM; in the assay on EKVX NSCLC it was 1.37 µM; with HS 578T breast, 0.0698 µM; in the assay with NCI-H226 lung, 1.45 µM; in the assay with OVCAR-4 ovarian it was 1.6 µM. Besides, the GI50 in the assay on PC-3 prostate is 1.33 µM; with SK-MEL-28 melanoma it was 2.22 µM; in the assay with SNB-75 CNS, 0.811 µM; in the assay with T-47D breast, 2.59 µM. Further, the TGI amounted to 8.06 µM with 786-0 renal; 1.2 µM in the assay on A498 renal; 2.95 µM in the assay on EKVX NSCLC; 1.79 µM with HS 578T breast; 4.74 µM in the assay on NCI-H226 lung; 3.93 µM in the assay on OVCAR-4 ovarian. Moreover, the TGI worked out at 3.51 µM with PC-3 prostate, 4.9 µM with SK-MEL-28 melanoma, 5.11 µM in the assay with SNB-75 CNS and 7.82 µM with T-47D breast.
Regarding `C#Cc1c(C(N)=O)ncn1C1OC(COP(=O)(OCc2ccc([N+](=O)[O-])o2)N(C)CCCCCl)C(O)C1O` (stereo not given), the GI50 was 36.3 µM in the assay with 786-0 renal; 39.6 µM with A498 renal; 82.9 µM in the assay with EKVX NSCLC; > 100 µM in the assay with HS 578T breast; > 100 µM in the assay on NCI-H226 lung; > 100 µM in the assay with OVCAR-4 ovarian. Besides, the GI50 with PC-3 prostate is 53.5 µM; in the assay with SK-MEL-28 melanoma it was 27.3 µM; in the assay with SNB-75 CNS, 28.1 µM; with T-47D breast, 12.7 µM. Besides, the TGI in the assay on 786-0 renal, in the assay with A498 renal, in the assay on EKVX NSCLC, in the assay with HS 578T breast, with NCI-H226 lung and in the assay on OVCAR-4 ovarian was > 100 µM throughout. The TGI in the assay on PC-3 prostate, with SK-MEL-28 melanoma, in the assay on SNB-75 CNS and with T-47D breast was > 100 µM throughout.

For the origin of these results see PubChem BioAssay (NCI).
